Data reported in the NIST ThermoML archive (doi:10.1016/j.fluid.2008.01.007).
Numbers after ± are expanded uncertainties.

Conditions: 101.33 kPa, Liquid

SMILES | mass density (293.15 K) [kg/m3] | mass density (298.15 K) [kg/m3] | other results
Cc1cccc(C)c1 [1,3-dimethylbenzene] | 868.124 ± 0.65 | – | –
CCCCn1cc[n+](C)c1.F[P-](F)(F)(F)(F)F [1-butyl-3-methylimidazolium hexafluorophosphate] | – | – | mass density (293.15 K, Vibrating tube method): 1380.33 ± 13 kg/m3
c1ccccc1 [benzene] | – | 873.945 ± 0.64 | –
CCCCCCCCC [nonane] | 718.418 ± 0.96 | – | –
Cc1ccccc1 [toluene] | – | 864.989 ± 0.18 | –
CCCCCCCCCCC [undecane] | – | 740.289 ± 0.92 | –
